Experimental data as given in US5834459A, “Alkyl-substituted compounds having dopamine receptor affinity” (Allelix Biopharmaceuticals Inc., priority 1996, dated 1998).

Tests used:
[1] = target: human D2 receptor (short isoform) (Homo sapiens, UniProt P14416); test: Receptor Binding Assay: displacement of 3H-spiperone, D2 receptor, for D2/D4 selectivity; conditions: for D2/D4 (selectivity): ratio D2/D4, GH4 C1 cells with human D2 short vs HEK 298 cells with human D4.2, 3H-spiperone
Experimental: (§1) The potency of the test compound to reduce ^3 H-spiperone binding directly correlated to its binding affinity for the receptor.
GH4 C1 (rat pituitary) cells stably transfected with the human D2 receptor (short isoform) were grown in CO2 independent media in roller bottles (1500 cm^2) for 10 days. 100 μM ZnSO4 was added to the cells (the D2 promoter being zinc inducible). After 16 hours, fresh media was added to allow the cells to recover for 24 hours. The cells were harvested using versene and then centrifuged in a Sorval centrifuge for 10 minutes, at 5000 rpm (GS3 rotor). Pellets were quickly frozen in liquid nitrogen and stored at -80° C. until used in the binding assays. When used in the assay, cells were thawed on ice for 20 minutes. […] The receptor protein concentration was determined using the Pierce BCA assay.
(§2) The tubes were vortexed and incubated at room temperature for 90 minutes. The binding reaction was stopped by filtering using a Brandell Cell Harvester. The samples were filtered under vacuum over glass fibre filters (Whatman GF/B) presoaked for 2 hours in 0.3% polyethylenimine (PEI) in 50 mM Tris buffer (pH7.4). The filters were then washed 3 times with 5 mL ice cold 50 mM Tris buffer (pH7.4). Individual filter disks were put in scintillation vials (Biovials, Bechman). Ready Protein Plus liquid scintillant (5 mL, Beckman) was added and the vials counted by liquid scintillation spectrophotometry (Beckman LSC 6500) after equilibrating for three hours at room temperature to determine total binding (BT).
This assay employed the same procedures as the non-specific binding assay for D4 with the exception that 2 μM (final conc.) of (-) sulpiride (Research Chemicals Inc.) was used in place of dopamine.
(§3) The incubation was started by the addition to 12×75 mm polypropylene tubes 500 μl (50 μg protein) membrane homogenate to a solution of 400 μl incubation buffer, 100 μl (0.25 final conc.) ^3 H-spiperone (90 Ci/mmol, Amersham, diluted in borosilicate glass vial to) and […] of test compound that was prepared from 1 mM stock dissolved in DMSO and stored at -20° C. in polypropylene cryogenic storage vials until dilution in incubation buffer in borosilicate glass vials. The tubes were vortexed and incubated at room temperature for 90 minutes at which time the binding reaction was stopped by filtering. The filters were washed and counted using the same procedure as in the total binding assay described above to give the displacement binding value (BD).
(§4) IC50 was determined from an inhibition response curve, logit-log plot of %B/BO vs concentration of test compound.
(§5) Ki was calculated by the Cheng and Prustoff transformation: […]
(§6) where [L] is the concentration of ^3 H-spiperone used in the assay and KD is the dissociation constant of ^3 H-spiperone determined independently under the same binding conditions.

[2] = target: T1, human D4 receptor (D4.2 sub-type) (Homo sapiens, UniProt P21917, DEL265-296); test: Receptor Binding Assay: displacement of 3H-spiperone, D4 receptor; conditions: for Ki: 3H-spiperone displacement, HEK 298 cells transfected with human D4.2, read-out: Ki (D4 affinity)
T1 construct: expressed in transfected cells; cell homogenate
T1 sequence (P21917 with tags, fused parts or gaps DEL265-296): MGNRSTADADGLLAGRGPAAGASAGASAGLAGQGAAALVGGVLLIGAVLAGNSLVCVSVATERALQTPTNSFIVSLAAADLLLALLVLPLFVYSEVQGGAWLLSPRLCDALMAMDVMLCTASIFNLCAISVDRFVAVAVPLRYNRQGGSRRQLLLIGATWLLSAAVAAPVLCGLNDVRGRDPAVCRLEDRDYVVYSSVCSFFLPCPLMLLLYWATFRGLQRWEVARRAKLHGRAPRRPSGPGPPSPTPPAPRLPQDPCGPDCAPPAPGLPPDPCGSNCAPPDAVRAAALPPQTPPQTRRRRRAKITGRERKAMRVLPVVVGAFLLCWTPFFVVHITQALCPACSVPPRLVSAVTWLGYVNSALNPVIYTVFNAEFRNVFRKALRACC
Experimental: as §1
The cells were then centrifuged in a Sorval centrifuge for 10 minutes, 5000 rpm (GS3 rotor) and the pellets quickly frozen in liquid nitrogen and stored at -80° C. until used in binding assay. When used in the assay, cells were thawed on ice for 20 minutes and then 10 mL of incubation buffer (50 mM Tris, 1 mM EDTA, 4 mM MgCl2, 5 mM KCl, 1.5 mM CaCl2, 120 mM NaCl, pH7.4) was added. […] Concentration of receptor protein was determined using the Pierce BCA assay.
as §2
The tubes were vortexed and incubated at room temperature for 90 minutes at which time the binding reaction was stopped by filtering. The filters were washed and counted using the same procedure as in the total binding assay described above to give the non-specific binding value (NSB).
as §3, §4, §5, §6

D4 receptor = conditions: background; both products approximately; cited from earlier work
D2 receptor = conditions: background; both products; cited from earlier work

Sequence of human D2 receptor (short isoform) (P14416 with tags, fused parts or gaps DEL242-270): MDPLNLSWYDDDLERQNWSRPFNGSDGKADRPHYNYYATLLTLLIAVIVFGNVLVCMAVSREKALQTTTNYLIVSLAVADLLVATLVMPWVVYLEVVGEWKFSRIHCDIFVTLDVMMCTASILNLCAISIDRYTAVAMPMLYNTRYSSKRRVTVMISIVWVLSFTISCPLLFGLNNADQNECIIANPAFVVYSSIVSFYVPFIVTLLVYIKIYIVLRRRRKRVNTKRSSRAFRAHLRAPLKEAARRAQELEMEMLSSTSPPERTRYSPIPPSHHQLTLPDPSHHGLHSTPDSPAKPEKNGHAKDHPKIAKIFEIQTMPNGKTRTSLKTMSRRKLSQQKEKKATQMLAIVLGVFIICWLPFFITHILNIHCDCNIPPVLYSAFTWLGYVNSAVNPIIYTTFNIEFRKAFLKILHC

D2/D4 (selectivity) [1] | Ki [2] | SMILES | D4 selectivity relative to the D2 receptor (in words) [1] | D4 selectivity compared with clozapine (in words) [1] | D4 affinity compared with clozapine (in words) [2] | Ki (D4 receptor) | preference for binding the D4 receptor relative to the D2 receptor (D2 receptor)
31.8 | 32 nM | CCCCCCN1CCN(C2=Nc3ccccc3Oc3c(Cl)cccc32)CC1 [4-chloro-11-(4-hexyl-1-piperazinyl)dibenz[b,f][1,4]oxazepine] | bind to the D4 receptor selectively relative to the D2 receptor | better D4 selectivity than clozapine | – | – | –
20.0 | 22 nM | CCCCCCN1CCN(C2=Nc3ccccc3Oc3ccccc32)CC1 [11-(4-hexyl-1-piperazinyl)dibenz[b,f][1,4]oxazepine] | bind to the D4 receptor selectively relative to the D2 receptor | better D4 affinity and selectivity than clozapine | better D4 affinity and selectivity than clozapine | – | –
– | – | CN1CCN(C2=Nc3cc(Cl)ccc3Oc3ccccc32)CC1 [isoloxapine] | – | – | – | ~20 nM | about 10 fold
– | – | CCCCCCCN1CCN(C2=Nc3ccccc3Oc3ccccc32)CC1 [11-(4-heptyl-1-piperazinyl)dibenz[b,f][1,4]oxazepine] | bind to the D4 receptor selectively relative to the D2 receptor | – | – | – | –
3.9 | 229 nM | CCCCCCCCCN1CCN(C2=Nc3ccccc3Oc3c(Cl)cccc32)CC1 [4-chloro-11-(4-nonyl-1-piperazinyl)dibenz[b,f][1,4]oxazepine] | bind to the D4 receptor selectively relative to the D2 receptor | better D4 selectivity than clozapine | – | – | –
– | – | CCCCCCCCN1CCN(C2=Nc3ccccc3Oc3ccccc32)CC1 [11-(4-octyl-1-piperazinyl)dibenz[b,f][1,4]oxazepine] | bind to the D4 receptor selectively relative to the D2 receptor | – | – | – | –
3.9 | 109 nM | CCCCCCCCCN1CCN(C2=Nc3ccccc3Oc3ccccc32)CC1 [11-(4-nonyl-1-piperazinyl)dibenz[b,f][1,4]oxazepine] | bind to the D4 receptor selectively relative to the D2 receptor | – | – | – | –
30.0 | 18 nM | CCCCCCCCCN1CCN(C2=Nc3cc(Cl)ccc3Oc3ccccc32)CC1 [8-chloro-11-(4-nonyl-1-piperazinyl)dibenz[b,f][1,4]oxazepine] | bind to the D4 receptor selectively relative to the D2 receptor | better D4 affinity and selectivity than clozapine | better D4 affinity and selectivity than clozapine | – | –
